Data as given in PubChem BioAssay (NCI).
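At the GI50, growth is halved. TGI: total growth inhibition.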

Assays:
Experiment in all cases: NCI anticancer screen, dose series, 384-well format
[1] = test system: 786-0 renal
[2] = test system: A498 renal
[3] = test system: A549 NSCLC
[4] = test system: ACHN renal
[5] = test system: BT-549 breast
[6] = test system: CAKI-1 renal
[7] = test system: CCRF-CEM leukemia
[8] = test system: DU-145 prostate
[9] = test system: EKVX NSCLC
[10] = test system: HCT-116 colon
[11] = test system: HCT-15 colon
[12] = test system: HL-60(TB) leukemia
[13] = test system: HOP-62 NSCLC
[14] = test system: HOP-92 NSCLC
[15] = test system: HS 578T breast
[16] = test system: HT29 colon
[17] = test system: IGROV1 ovarian
[18] = test system: K-562 leukemia
[19] = test system: KM12 colon
[20] = test system: LOX IMVI melanoma
[21] = test system: M14 melanoma
[22] = test system: MALME-3M melanoma
[23] = test system: MCF7 breast
[24] = test system: MDA-MB-231 breast
[25] = test system: MDA-MB-435 melanoma
[26] = test system: MDA-MB-468 breast
[27] = test system: MOLT-4 leukemia
[28] = test system: NCI-H226 lung
[29] = test system: NCI-H23 lung
[30] = test system: NCI-H322M lung
[31] = test system: NCI-H522 lung
[32] = test system: NCI/ADR-RES ovarian
[33] = test system: OVCAR-3 ovarian
[34] = test system: OVCAR-4 ovarian
[35] = test system: OVCAR-5 ovarian
[36] = test system: OVCAR-8 ovarian
[37] = test system: PC-3 prostate
[38] = test system: RPMI-8226 leukemia
[39] = test system: RXF 393 renal
[40] = test system: SF-268 CNS
[41] = test system: SF-295 CNS
[42] = test system: SF-539 CNS
[43] = test system: SK-MEL-28 melanoma
[44] = test system: SK-OV-3 ovarian
[45] = test system: SN12C renal
[46] = test system: SNB-19 CNS
[47] = test system: SNB-75 CNS
[48] = test system: SW-620 colon
[49] = test system: T-47D breast
[50] = test system: TK-10 renal
[51] = test system: U251 glioblastoma
[52] = test system: UACC-257 melanoma
[53] = test system: UACC-62 melanoma
[54] = test system: UO-31 renal

For Nc1nc(Cl)nc2c1ncn2C1CC(O)C(CO)O1 (stereo not drawn), the GI50 [1] was 1280 nM, the TGI [1] was > 100 µM and the GI50 [2] was 701 nM. For the same compound, the TGI [2] was > 100 µM, the GI50 [3] was 434 nM and the TGI [3] was > 100 µM. It also gave a GI50 [4] of 923 nM, a TGI [4] of 5.14 µM and a GI50 [5] of 184 nM. For the same compound, the TGI [5] was 977 nM, the GI50 [6] was 353 nM and the TGI [6] was > 100 µM. The GI50 [7] was 81.2 nM, the TGI [7] was 206 nM and the GI50 [8] was 808 nM. For the same compound, the TGI [8] was > 100 µM, the GI50 [9] was > 100 µM and the TGI [9] was > 100 µM. The GI50 [10] was 270 nM, the TGI [10] was > 100 µM and the GI50 [11] was 395 nM. The TGI [11] was > 100 µM, the GI50 [12] was 35.3 nM and the TGI [12] was 108 nM. It also gave a GI50 [13] of 236 nM, a TGI [13] of 969 nM and a GI50 [14] of 9.31 µM. For the same compound, the TGI [14] was > 100 µM, the GI50 [15] was 70.7 µM and the TGI [15] was > 100 µM. For the same compound, the GI50 [16] was 1370 nM, the TGI [16] was > 100 µM and the GI50 [17] was 14.7 µM. For the same compound, the TGI [17] was > 100 µM, the GI50 [18] was 428 nM and the TGI [18] was > 100 µM. The GI50 [19] was 994 nM, the TGI [19] was > 100 µM and the GI50 [20] was 1110 nM. The TGI [20] was 3.8 µM, the GI50 [21] was 108 nM and the TGI [21] was 448 nM. The GI50 [22] was 308 nM, the TGI [22] was > 100 µM and the GI50 [23] was 650 nM. The TGI [23] was > 100 µM, the GI50 [24] was 481 nM and the TGI [24] was > 100 µM. For the same compound, the GI50 [25] was 743 nM, the TGI [25] was > 100 µM and the GI50 [26] was 3.03 µM. For the same compound, the TGI [26] was 16.2 µM, the GI50 [27] was 22.9 nM and the TGI [27] was 59.6 nM. The GI50 [28] was 3.58 µM, the TGI [28] was 18.2 µM and the GI50 [29] was 212 nM. The TGI [29] was 481 nM, the GI50 [30] was 37.5 µM and the TGI [30] was > 100 µM. For the same compound, the GI50 [31] was 830 nM, the TGI [31] was > 100 µM and the GI50 [32] was 135 nM. The TGI [32] was > 100 µM, the GI50 [33] was 2090 nM and the TGI [33] was > 100 µM. For the same compound, the GI50 [34] was > 100 µM, the TGI [34] was > 100 µM and the GI50 [35] was 764 nM. For the same compound, the TGI [35] was > 100 µM, the GI50 [36] was 35.6 nM and the TGI [36] was > 100 µM. The GI50 [37] was > 100 µM, the TGI [37] was > 100 µM and the GI50 [38] was 372 nM. For the same compound, the TGI [38] was 1610 nM, the GI50 [39] was 47.8 µM and the TGI [39] was > 100 µM. It also gave a GI50 [40] of 2890 nM, a TGI [40] of 19.8 µM and a GI50 [41] of 11.2 µM. The TGI [41] was 34.1 µM, the GI50 [42] was 2630 nM and the TGI [42] was 12.2 µM. For the same compound, the GI50 [43] was 552 nM, the TGI [43] was > 100 µM and the GI50 [44] was 3.01 µM. For the same compound, the TGI [44] was > 100 µM, the GI50 [45] was 122 nM and the TGI [45] was 926 nM. The GI50 [46] was 738 nM, the TGI [46] was > 100 µM and the GI50 [47] was 19.9 µM. For the same compound, the TGI [47] was 87.8 µM, the GI50 [48] was 712 nM and the TGI [48] was > 100 µM. The GI50 [49] was 6.73 µM, the TGI [49] was > 100 µM and the GI50 [50] was > 100 µM. For the same compound, the TGI [50] was > 100 µM, the GI50 [51] was 825 nM and the TGI [51] was 15.8 µM. For the same compound, the GI50 [52] was 1390 nM, the TGI [52] was > 100 µM and the GI50 [53] was 177 nM. For the same compound, the TGI [53] was 501 nM, the GI50 [54] was 372 nM and the TGI [54] was 3.85 µM.
